Laboratory results taken from patent US20260000783A1, “ANTIBODY-DRUG CONJUGATE WITH IMPROVED THERAPEUTIC WINDOW” (priority 2018, published 2026).

Columns and labels:
Hela cells = assay: Cell viability assay (MTS) of HeLa cells with SO1861 + dianthin-EGF and PAMAM, PAMAM-conjugates, G4-dendron or chloroquine; assay type: cell-based, human; conditions: positive control
Procedure: Hela cells were seeded in DMEM (PAN-Biotech GmbH) supplemented with 10% fetal bovine serum (PAN-Biotech GmbH) and 1% penicillin/streptomycin (PAN-Biotech GmbH), in a 96 well plate at 5,000 c/w in 100 μL/well and incubated overnight at 37° C. and 5% CO2. The next day 20× concentrated stocks of the PAMAM, PAMAM-conjugates, G4-dendron (prepared in Example 3) or chloroquine (Sigma Aldrich) samples were prepared in DMEM. The media was removed from the cell culture plate and replaced by 160 μL culture media, followed by the addition of 10 μL sample/well (from the 20× concentrated stocks) and a 45 min incubation at 37° C. […] Followed by 15 sec sonication and a brief re-heating at 50° C. for 1 min, while shaking at 1,250 rpm. Subsequently a serial dilution of SO1861 was prepared in PBS.
Scientific Multiskan FC plate reader (Thermo Scientific).

[1] = system: SK-BR-3, JIMT-1, MDA-MB-468, A431, CaSKi, HeLa, A2058; assay: Control treatments on all cell lines, relative cell viability (Example 8); assay type: cell-based, human; conditions: wide range of toxin concentrations, up to 100.000 pM (FIG. 14D)

Compound | fold increase in glycoside amount to observe 50% cell killing (Hela cells) [fold] | relative cell viability [1]
CCN(CC)CCCC(C)Nc1ccnc2cc(Cl)ccc12 (centres unmarked) [Chloroquine] | 2 | 
saporin |  | do not or hardly have any influence on cell viability
